Experimental data: patent publication US9981944B2, “GDF-8 inhibitors” (Rigel Pharmaceuticals, Inc., priority 2015, dated 2018)
pIC50: −log10 of the molar value.

Tests used:
HIS-TGFβR2 WT = HIS-TGFβR2 WT (Homo sapiens (Human), UniProt P37173); assay: HTRF probe displacement assay, HIS-TGFβR2 WT; type: binding; conditions: 1 nM HIS-TGFβR2 WT, 1 hour at room temperature, read-out: TGFBR2WT IC50
Experimental: (§1) Compounds were dissolved at 10 mM in dimethylsulfoxide (DMSO) and evaluated at eleven concentrations. IC50 values were derived by non-linear regression analysis.

HIS-TGFβR1 T204D = HIS-TGFβR1 T204D (Homo sapiens (Human), UniProt P36897, T204D); assay: HTRF probe displacement assay, HIS-TGFβR1 T204D; type: binding; conditions: 1 nM HIS-TGFβR1 T204D, 1 hour at room temperature, read-out: TGFBR1T204D IC50
Chain of HIS-TGFβR1 T204D (P36897 34-503 T204D): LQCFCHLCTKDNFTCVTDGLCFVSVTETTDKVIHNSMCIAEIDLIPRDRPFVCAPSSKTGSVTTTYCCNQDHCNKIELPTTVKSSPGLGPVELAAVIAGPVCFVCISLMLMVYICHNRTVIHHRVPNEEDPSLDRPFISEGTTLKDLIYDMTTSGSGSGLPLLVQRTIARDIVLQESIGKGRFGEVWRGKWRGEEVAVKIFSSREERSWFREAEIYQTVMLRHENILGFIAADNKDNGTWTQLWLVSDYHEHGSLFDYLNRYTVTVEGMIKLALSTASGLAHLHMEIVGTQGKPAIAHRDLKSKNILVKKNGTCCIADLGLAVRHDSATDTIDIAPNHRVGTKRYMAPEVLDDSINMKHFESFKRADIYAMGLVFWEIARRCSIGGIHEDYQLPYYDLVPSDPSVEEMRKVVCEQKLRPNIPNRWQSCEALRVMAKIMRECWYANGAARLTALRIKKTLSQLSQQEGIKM
Experimental: as §1

Chain of HIS-TGFβR2 WT (P37173 23-567): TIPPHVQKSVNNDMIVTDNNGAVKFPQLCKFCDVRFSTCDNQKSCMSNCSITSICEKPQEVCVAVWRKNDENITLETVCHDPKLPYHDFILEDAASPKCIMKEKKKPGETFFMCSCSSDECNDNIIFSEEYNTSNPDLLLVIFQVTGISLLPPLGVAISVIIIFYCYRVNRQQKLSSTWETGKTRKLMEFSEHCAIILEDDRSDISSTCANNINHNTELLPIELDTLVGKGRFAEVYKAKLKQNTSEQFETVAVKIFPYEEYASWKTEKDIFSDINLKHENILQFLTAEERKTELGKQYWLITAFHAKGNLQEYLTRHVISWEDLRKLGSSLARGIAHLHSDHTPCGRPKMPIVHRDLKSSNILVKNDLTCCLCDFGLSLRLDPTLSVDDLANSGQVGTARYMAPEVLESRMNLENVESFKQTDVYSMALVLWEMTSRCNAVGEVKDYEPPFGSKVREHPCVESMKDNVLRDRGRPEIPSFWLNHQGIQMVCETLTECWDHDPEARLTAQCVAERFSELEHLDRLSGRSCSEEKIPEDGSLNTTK

SMILES | pIC50 (HIS-TGFβR2 WT) | pIC50 (HIS-TGFβR1 T204D)
Fc1ccc(-c2ncccc2-c2ccc3[nH]ncc3c2)nc1 [Compound 116, 5-(5′-fluoro-[2,2′-bipyridin]-3-yl)-1H-indazole] | < 4.82 | 7.85
Cc1nc(-c2ncccc2-c2ccn3ncc(C(=O)NC4COC4)c3n2)ccc1F [Compound 133, 5-(5′-fluoro-6′-methyl-[2,2′-bipyridin]-3-yl)-N-(oxetan-3-yl)pyrazolo[1,5-a]pyrimidine-3-carboxamide] | < 4.82 | 7.62
NC(=O)c1cnc2ccc(-c3cccnc3-c3cc(F)ccn3)cn12 [Compound 22, 6-(4′-fluoro-[2,2′-bipyridin]-3-yl)imidazo[1,2-a]pyridine-3-carboxamide] |  | 8.30
N#Cc1cnc2ccc(-c3cccnc3-c3cccc(C(F)F)n3)nn12 [Compound 49, 6-(6′-(difluoromethyl)-[2,2′-bipyridin]-3-yl)imidazo[1,2-b]pyridazine-3-carbonitrile] | < 4.82 | 7.21
Cc1cccc(-c2nccc(CO)c2-c2ccc3ncc(C#N)n3c2)n1 [Compound 92, 6-(4-(hydroxymethyl)-6′-methyl-[2,2′-bipyridin]-3-yl)imidazo[1,2-a]pyridine-3-carbonitrile] | < 4.82 | 6.31
Cc1nc(-c2ncc(F)cc2-c2ccc3ncc(C(N)=O)n3c2)ccc1F [Compound 85, 6-(5,5′-difluoro-6′-methyl-[2,2′-bipyridin]-3-yl)imidazo[1,2-a]pyridine-3-carboxamide] |  | 8.70
CCOC(=O)c1cnn2ccc(-c3cccnc3-c3cccc(C(F)F)n3)nc12 [Compound 134, ethyl 5-(6′-(difluoromethyl)-[2,2′-bipyridin]-3-yl)pyrazolo[1,5-a]pyrimidine-3-carboxylate] | < 4.82 | 7.55
NC(=O)c1cnc2ccc(-c3cccnc3-c3cccc(F)n3)cn12 [Compound 37, 6-(6′-fluoro-[2,2′-bipyridin]-3-yl)imidazo[1,2-a]pyridine-3-carboxamide] |  | 8.40
Cc1nc(-c2ncccc2-c2ccc3ncnc(N)c3c2)ccc1F [Compound 110] | < 4.82 | 8.70
CC(=O)c1cccc(-c2ncccc2-c2ccc3ncc(C#N)n3c2)n1 [Compound 40, 6-(6′-acetyl-[2,2′-bipyridin]-3-yl)imidazo[1,2-a]pyridine-3-carbonitrile] | < 4.82 | 6.09
CC(C)c1cccc(-c2ncccc2-c2ccc3ncnc(N)c3c2)n1 [Compound 108, 6-(6′-isopropyl-[2,2′-bipyridin]-3-yl)quinazolin-4-amine] | < 4.82 | 6.76
N#Cc1cnc2ccc(-c3cccnc3-c3ccc(F)c(C(F)F)n3)cn12 [Compound 23, 6-(6′-(difluoromethyl)-5′-fluoro-[2,2′-bipyridin]-3-yl)imidazo[1,2-a]pyridine-3-carbonitrile] | < 4.82 | 6.89
Cc1nc(-c2ncccc2-c2ccc3nc(C(N)=O)cn3c2)ccc1F [Compound 78, 6-(5′-fluoro-6′-methyl-[2,2′-bipyridin]-3-yl)imidazo[1,2-a]pyridine-2-carboxamide] | < 4.82 | 4.82
COC(=O)c1ccc(-c2ncccc2-c2ccc3ncc(C#N)n3c2)nc1 [Compound 25, methyl 3′-(3-cyanoimidazo[1,2-a]pyridin-6-yl)-[2,2′-bipyridine]-5-carboxylate] | < 4.82 | 5.35
CC(=O)Nc1ccnc(-c2cccc(C)n2)c1-c1ccc2ncc(C#N)n2c1 [Compound 100, N-(3-(3-cyanoimidazo[1,2-a]pyridin-6-yl)-6′-methyl-[2,2′-bipyridin]-4-yl)acetamide] | < 4.82 | 4.95
Cc1cccc(-c2nccc(C(F)F)c2-c2ccc3ncc(C(N)=O)n3c2)n1 [Compound 94, 6-(4-(difluoromethyl)-6′-methyl-[2,2′-bipyridin]-3-yl)imidazo[1,2-a]pyridine-3-carboxamide] | < 4.82 | 4.82
COCCNC(=O)c1cnc2ccc(-c3cccnc3-c3cccc(C)n3)cn12 [Compound 70, N-(2-methoxyethyl)-6-(6′-methyl-[2,2′-bipyridin]-3-yl)imidazo[1,2-a]pyridine-3-carboxamide] | < 4.82 | 8.40
CCc1cccc(-c2ncccc2-c2ccc3ncnc(N)c3c2)n1 [Compound 107, 6-(6′-ethyl-[2,2′-bipyridin]-3-yl)quinazolin-4-amine] | < 4.82 | 8.05
FC(F)(F)c1cccc(-c2ncccc2-c2ccc3nccnc3c2)n1 [Compound 114, 6-(6′-(trifluoromethyl)-[2,2′-bipyridin]-3-yl)quinoxaline] | < 4.82 | 7.80
Cc1cccc(-c2ncccc2-c2ccc3nccn3c2)n1 [Compound 47, 6-(6′-methyl-[2,2′-bipyridin]-3-yl)imidazo[1,2-a]pyridine] | < 4.82 | 8.52
N#Cc1cnc2ccc(-c3cccnc3-c3ccccn3)cn12 [Compound 13, 6-([2,2′-bipyridin]-3-yl)imidazo[1,2-a]pyridine-3-carbonitrile] | < 4.82 | 6.99

SMILES | pIC50 (HIS-TGFβR2 WT) | pIC50 (HIS-TGFβR1 T204D)
CC(=O)Nc1cnc(-c2cccc(C)n2)c(-c2ccc3ncc(C(N)=O)n3c2)c1 [Compound 97, 6-(5-acetamido-6′-methyl-[2,2′-bipyridin]-3-yl)imidazo[1,2-a]pyridine-3-carboxamide] |  | 8.30
CNC(=O)c1cnn2ccc(-c3cccnc3-c3cccc(C(F)(F)F)n3)nc12 [Compound 125, N-methyl-5-(6′-(trifluoromethyl)-[2,2′-bipyridin]-3-yl)pyrazolo[1,5-a]pyrimidine-3-carboxamide] | < 4.82 | 6.47
CC(C)c1cccc(-c2ncccc2-c2ccc3ncc(C#N)n3c2)n1 [Compound 31, 6-(6′-isopropyl-[2,2′-bipyridin]-3-yl)imidazo[1,2-a]pyridine-3-carbonitrile] | < 4.82 | 6.51
Cc1nc(-c2ncccc2-c2ccn3ncc(C(=O)O)c3n2)ccc1F [Compound 131, 5-(5′-fluoro-6′-methyl-[2,2′-bipyridin]-3-yl)pyrazolo[1,5-a]pyrimidine-3-carboxylic acid] | < 4.82 | 6.68
CS(=O)(=O)Nc1cccc(-c2ncccc2-c2ccc3ncc(C#N)n3c2)n1 [Compound 44, N-(3′-(3-cyanoimidazo[1,2-a]pyridin-6-yl)-[2,2′-bipyridin]-6-yl)methanesulfonamide] | < 4.82 | 5.70
N#Cc1cnc2ccc(-c3cccnc3-c3cc(F)ccn3)cn12 [Compound 16, 6-(4′-fluoro-[2,2′-bipyridin]-3-yl)imidazo[1,2-a]pyridine-3-carbonitrile] | < 4.82 | 6.68
Cc1cccc(-c2nc(C)ccc2-c2ccc3ncc(C(N)=O)n3c2)n1 [Compound 87] | < 4.82 | 7.82
NC(=O)c1cnc2ccc(-c3cccnc3-c3ccc(C(=O)O)cn3)cn12 [Compound 27, 3′-(3-carbamoylimidazo[1,2-a]pyridin-6-yl)-[2,2′-bipyridine]-5-carboxylic acid] | < 4.82 | 4.84
NC(=O)c1cnc2ccc(-c3cccnc3-c3cccc(C(F)(F)F)n3)cn12 [Compound 18, 6-(6′-(trifluoromethyl)-[2,2′-bipyridin]-3-yl)imidazo[1,2-a]pyridine-3-carboxamide] | < 4.82 | 9.00
CC(=O)Nc1cccc(-c2ncccc2-c2ccc3ncc(C#N)n3c2)n1 [Compound 45, N-(3′-(3-cyanoimidazo[1,2-a]pyridin-6-yl)-[2,2′-bipyridin]-6-yl)acetamide] | < 4.82 | 6.04
Cc1cccc(-c2nc(C)ccc2-c2ccc3ncc(C#N)n3c2)n1 [Compound 86, 6-(6,6′-dimethyl-[2,2′-bipyridin]-3-yl)imidazo[1,2-a]pyridine-3-carbonitrile] | < 4.82 | 6.73
NC(=O)c1cnc2ccc(-c3cccnc3-c3ccc(F)cn3)cn12 [Compound 21, 6-(5′-fluoro-[2,2′-bipyridin]-3-yl)imidazo[1,2-a]pyridine-3-carboxamide] |  | 8.30
Cc1cccc(-c2ncc(N)cc2-c2ccc3ncc(C(=O)O)n3c2)n1 [Compound 99, 6-(5-amino-6′-methyl-[2,2′-bipyridin]-3-yl)imidazo[1,2-a]pyridine-3-carboxylic acid] |  | 8.40
NC(=O)c1cnc2ccc(-c3cccnc3-c3ccc(F)c(C(F)F)n3)cn12 [Compound 24, 6-(6′-(difluoromethyl)-5′-fluoro-[2,2′-bipyridin]-3-yl)imidazo[1,2-a]pyridine-3-carboxamide] | < 4.82 | 
Cc1nc(-c2ncccc2-c2ccc3ncc(C(N)=O)n3c2)ccc1F [Compound 19, 6-(5′-fluoro-6′-methyl-[2,2′-bipyridin]-3-yl)imidazo[1,2-a]pyridine-3-carboxamide] |  | 9.00
Cc1cccc(-c2ncc(N)cc2-c2ccc3ncc(C(N)=O)n3c2)n1 [Compound 98, 6-(5-amino-6′-methyl-[2,2′-bipyridin]-3-yl)imidazo[1,2-a]pyridine-3-carboxamide] |  | 8.70
COc1cccc(-c2ncccc2-c2ccc3ncc(C(N)=O)n3c2)n1 [Compound 33, 6-(6′-methoxy-[2,2′-bipyridin]-3-yl)imidazo[1,2-a]pyridine-3-carboxamide] |  | 9.00
Cc1cccc(-c2ncc(F)cc2-c2ccc3ncc(C(N)=O)n3c2)n1 [Compound 82, 6-(5-fluoro-6′-methyl-[2,2′-bipyridin]-3-yl)imidazo[1,2-a]pyridine-3-carboxamide] |  | 9.00
CCc1cccc(-c2ncccc2-c2ccc3ncc(C#N)n3c2)n1 [Compound 30, 6-(6′-ethyl-[2,2′-bipyridin]-3-yl)imidazo[1,2-a]pyridine-3-carbonitrile] | < 4.82 | 
NC(=O)c1cnc2ccc(-c3cccnc3-c3ccccn3)cn12 [Compound 39, 6-([2,2′-bipyridin]-3-yl)imidazo[1,2-a]pyridine-3-carboxamide] |  | 8.22
